For 17 compounds, Kd results are on record in US10934274B2, “Quinoline derivatives as TAM RTK inhibitors” (Qurient Co., Ltd., priority 2015, dated 2021).

As a reminder, the Kd is the concentration at which binding is half-saturated.

The target in assay [1] is T1, Mer (Homo sapiens, UniProt Q12866).
T1 construct: purchased Life Technologies
T1 sequence (Q12866 21-999): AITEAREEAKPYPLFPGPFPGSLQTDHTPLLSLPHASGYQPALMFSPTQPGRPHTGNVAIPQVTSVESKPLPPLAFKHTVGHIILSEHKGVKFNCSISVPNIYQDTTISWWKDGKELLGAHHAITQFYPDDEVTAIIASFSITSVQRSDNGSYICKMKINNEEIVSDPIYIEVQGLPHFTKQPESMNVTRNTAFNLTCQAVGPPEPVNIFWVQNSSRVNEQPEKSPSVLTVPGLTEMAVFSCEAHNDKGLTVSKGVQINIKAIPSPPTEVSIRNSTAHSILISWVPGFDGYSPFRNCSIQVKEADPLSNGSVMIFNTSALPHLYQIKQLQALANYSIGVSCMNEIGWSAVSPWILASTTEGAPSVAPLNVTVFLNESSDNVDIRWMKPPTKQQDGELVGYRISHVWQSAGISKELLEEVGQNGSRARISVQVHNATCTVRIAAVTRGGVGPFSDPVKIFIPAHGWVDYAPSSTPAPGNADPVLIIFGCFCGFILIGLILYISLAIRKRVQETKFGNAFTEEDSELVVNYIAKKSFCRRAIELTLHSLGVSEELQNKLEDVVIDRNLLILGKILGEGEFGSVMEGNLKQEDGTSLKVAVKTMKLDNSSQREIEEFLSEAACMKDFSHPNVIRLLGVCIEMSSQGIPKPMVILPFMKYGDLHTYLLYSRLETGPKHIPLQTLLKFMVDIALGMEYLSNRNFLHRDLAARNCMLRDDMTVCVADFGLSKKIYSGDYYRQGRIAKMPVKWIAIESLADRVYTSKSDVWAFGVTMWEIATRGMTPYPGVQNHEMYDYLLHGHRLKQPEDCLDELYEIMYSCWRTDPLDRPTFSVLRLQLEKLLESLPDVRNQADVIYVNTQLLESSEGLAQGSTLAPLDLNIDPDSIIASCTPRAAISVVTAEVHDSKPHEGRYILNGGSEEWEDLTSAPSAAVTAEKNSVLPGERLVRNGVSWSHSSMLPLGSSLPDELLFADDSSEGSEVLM
In words: LanthaScreen Eu kinase binding assay, Mer. The note with it: Tracer 236.

Assay [2] concerns the target T2, Axl (Homo sapiens, UniProt P30530).
T2 construct: purchased Life Technologies
T2 sequence (P30530 26-894): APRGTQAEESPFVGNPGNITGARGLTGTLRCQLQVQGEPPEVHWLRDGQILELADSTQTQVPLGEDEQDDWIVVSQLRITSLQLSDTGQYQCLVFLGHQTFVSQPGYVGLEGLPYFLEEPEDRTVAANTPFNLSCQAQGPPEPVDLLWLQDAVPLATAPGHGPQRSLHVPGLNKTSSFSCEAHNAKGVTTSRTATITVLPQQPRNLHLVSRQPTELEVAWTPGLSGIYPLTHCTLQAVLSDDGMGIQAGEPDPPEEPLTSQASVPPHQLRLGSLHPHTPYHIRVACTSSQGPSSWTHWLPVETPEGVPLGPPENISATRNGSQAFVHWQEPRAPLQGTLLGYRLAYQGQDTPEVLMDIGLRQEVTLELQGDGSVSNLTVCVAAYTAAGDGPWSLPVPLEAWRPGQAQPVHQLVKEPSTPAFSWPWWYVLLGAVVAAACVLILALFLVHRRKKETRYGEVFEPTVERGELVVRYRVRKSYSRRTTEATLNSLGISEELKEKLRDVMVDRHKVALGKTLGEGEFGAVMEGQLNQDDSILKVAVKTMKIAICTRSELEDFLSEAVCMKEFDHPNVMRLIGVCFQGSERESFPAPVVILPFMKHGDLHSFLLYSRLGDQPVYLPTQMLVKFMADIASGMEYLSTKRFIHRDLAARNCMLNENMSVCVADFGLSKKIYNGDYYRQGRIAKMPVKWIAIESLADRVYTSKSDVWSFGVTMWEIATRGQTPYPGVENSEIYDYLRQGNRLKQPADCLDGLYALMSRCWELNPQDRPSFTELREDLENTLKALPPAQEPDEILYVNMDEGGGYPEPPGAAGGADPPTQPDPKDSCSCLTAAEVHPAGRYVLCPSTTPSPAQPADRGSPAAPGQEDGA
Kind of assay: LanthaScreen Eu kinase binding assay, Axl. The conditions noted are these: Tracer 236. On the technique in general: Time-resolved FRET reads energy transfer from a long-lived donor to a nearby acceptor.

Assay [3] concerns the target T3, Met (Homo sapiens, UniProt P08581).
T3 construct: purchased Life Technologies
Kind of assay: LanthaScreen Eu kinase binding assay, Met. The note with it: Tracer 236, read-out: cMet kinase binding activity (Kd).

T3 sequence (P08581 25-1390): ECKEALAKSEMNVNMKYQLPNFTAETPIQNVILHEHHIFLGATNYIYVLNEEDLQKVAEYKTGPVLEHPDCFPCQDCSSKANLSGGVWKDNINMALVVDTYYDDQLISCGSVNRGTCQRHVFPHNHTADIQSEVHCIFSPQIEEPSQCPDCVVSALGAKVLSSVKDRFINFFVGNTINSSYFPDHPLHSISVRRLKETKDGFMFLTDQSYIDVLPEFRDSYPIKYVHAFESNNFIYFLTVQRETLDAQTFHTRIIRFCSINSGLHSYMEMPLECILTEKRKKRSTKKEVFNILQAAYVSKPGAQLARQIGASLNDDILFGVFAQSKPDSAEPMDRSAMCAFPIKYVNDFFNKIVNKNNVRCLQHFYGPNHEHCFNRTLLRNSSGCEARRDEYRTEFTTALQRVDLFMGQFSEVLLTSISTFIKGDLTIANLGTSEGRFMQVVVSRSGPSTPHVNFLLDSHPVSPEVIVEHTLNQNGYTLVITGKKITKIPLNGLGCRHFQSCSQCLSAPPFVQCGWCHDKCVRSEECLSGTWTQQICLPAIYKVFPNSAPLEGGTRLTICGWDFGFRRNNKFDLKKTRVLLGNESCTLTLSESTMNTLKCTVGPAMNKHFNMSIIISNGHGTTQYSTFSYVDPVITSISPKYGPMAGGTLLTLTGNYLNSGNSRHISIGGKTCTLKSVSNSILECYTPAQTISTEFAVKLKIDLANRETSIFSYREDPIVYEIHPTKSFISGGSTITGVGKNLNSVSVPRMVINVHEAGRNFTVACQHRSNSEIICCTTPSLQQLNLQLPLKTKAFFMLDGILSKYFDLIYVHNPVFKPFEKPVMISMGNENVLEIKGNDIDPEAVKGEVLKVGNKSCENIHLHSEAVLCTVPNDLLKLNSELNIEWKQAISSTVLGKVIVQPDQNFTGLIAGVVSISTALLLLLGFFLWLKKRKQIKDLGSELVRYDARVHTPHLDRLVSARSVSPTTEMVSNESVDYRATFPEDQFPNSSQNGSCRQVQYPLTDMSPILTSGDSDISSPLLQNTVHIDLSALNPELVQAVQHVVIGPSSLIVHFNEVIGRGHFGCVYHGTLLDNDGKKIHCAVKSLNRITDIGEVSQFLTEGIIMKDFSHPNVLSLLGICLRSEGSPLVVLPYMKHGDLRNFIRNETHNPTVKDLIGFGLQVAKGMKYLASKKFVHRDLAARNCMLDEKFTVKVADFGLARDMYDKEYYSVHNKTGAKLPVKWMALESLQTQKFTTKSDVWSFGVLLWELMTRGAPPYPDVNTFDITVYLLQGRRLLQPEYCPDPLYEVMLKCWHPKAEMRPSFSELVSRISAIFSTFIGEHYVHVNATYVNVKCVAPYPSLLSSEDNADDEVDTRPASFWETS

For `COc1cc2c(Oc3ccc(NC(=O)c4nn(-c5cnc(N)nc5)cc4OCC(F)(F)F)nc3)ccnc2cc1OC(C)C` [Compound 257], the equilibrium dissociation constant (Kd) in assay [1], in assay [2] and in assay [3] was less than 100 nM in each case.
Consider `COc1cc2nccc(Oc3ccc(NC(=O)c4nn(-c5ccc(F)cc5C)cc4OCC4CC4)nc3)c2cc1OC` [Compound 258], for which the dissociation constant (Kd) in assay [1], in assay [2] and in assay [3] was less than 100 nM in each case.
As to `COc1cc2nccc(Oc3ccc(NC(=O)c4nn(-c5cnc(N)nc5)cc4OCC(F)(F)F)c(F)c3)c2cc1OC` [Compound 259], the Kd in assay [1], in assay [2] and in assay [3] was less than 100 nM in each case.
For the compound `COc1cc2nccc(Oc3ccc(NC(=O)c4nn(-c5cnc(N)nc5)cc4OC(C)C)nc3)c2cc1OC` [Compound 260], the dissociation constant (Kd) in assay [1], in assay [2] and in assay [3] was less than 100 nM each time.
With `COc1cc2nccc(Oc3ccc(NC(=O)c4nn(-c5cncnc5C5CC5)cc4OCC(F)(F)F)nc3)c2cc1OC` [Compound 261], the Kd in assay [1], in assay [2] and in assay [3] was less than 100 nM each time.
As for `COc1cc2nccc(Oc3ccc(NC(=O)c4nn(-c5cnc(N)nc5)cc4OCC4CCC4)nc3)c2cc1OC` [Compound 262], the Kd in assay [1], in assay [2] and in assay [3] was less than 100 nM each time.
`COc1cc2nccc(Oc3ccc(NC(=O)c4nn(-c5ccc(F)cc5Cl)cc4OCC4CC4)nc3)c2cc1OC` [Compound 263]: the Kd in assay [1], in assay [2] and in assay [3] was less than 100 nM each time.
As to `COc1cc2nccc(Oc3ccc(NC(=O)c4nn(-c5ccc(F)cc5OC)cc4OCC4CC4)nc3)c2cc1OC` [Compound 264], the Kd in assay [1], in assay [2] and in assay [3] was less than 100 nM each time.
`COc1cc2nccc(Oc3ccc(NC(=O)c4nn(-c5cnc(N)nc5)cc4OCC4CNC4)nc3)c2cc1OC` [Compound 265]: the Kd in assay [1] was not below 1000 nM; in assay [2] it was 100 to 1000 nM; in assay [3], not below 1000 nM.
For the compound `COc1cc2nccc(Oc3ccc(NC(=O)c4nn(-c5ccc(F)cc5N5CCOCC5)cc4OCC4CC4)nc3)c2cc1OC` [Compound 266], the Kd in assay [1], in assay [2] and in assay [3] was less than 100 nM throughout.
As to `COc1cc2nccc(Oc3ccc(NC(=O)c4nn(-c5ccc(F)cc5F)cc4OCC4CC4)nc3)c2cc1OC` [Compound 267], the equilibrium dissociation constant (Kd) in assay [1], in assay [2] and in assay [3] was less than 100 nM in each case.
Regarding `COc1cc2nccc(Oc3ccc(NC(=O)c4nn(-c5ccc(F)cc5F)cc4OCC(F)(F)F)nc3)c2cc1OC` [Compound 268], the Kd in assay [1], in assay [2] and in assay [3] was less than 100 nM throughout.
For the compound `COc1cc2nccc(Oc3ccc(NC(=O)c4nn(-c5cnc(N)nc5)cc4OCC4COC4)nc3)c2cc1OC` [Compound 269], the values for the dissociation constant (Kd) in assay [1], in assay [2] and in assay [3] were less than 100 nM, less than 100 nM and 100 to 1000 nM, respectively.
As to `COc1cc2nccc(Oc3ccc(NC(=O)c4nn(-c5ccc(F)cc5C5CCCC5)cc4OCC4CC4)nc3)c2cc1OC` [Compound 270], the Kd in assay [1], in assay [2] and in assay [3] was 100 to 1000 nM throughout.
Turning to `COc1cc2nccc(Oc3ccc(NC(=O)c4nn(-c5ccc(F)cc5Oc5ccccc5)cc4OCC4CC4)nc3)c2cc1OC` [Compound 272], the dissociation constant (Kd) in assay [1] is less than 100 nM; in assay [2], 100 to 1000 nM; in assay [3], 100 to 1000 nM.
As to `COc1cc2nccc(Oc3ccc(NC(=O)c4nn(-c5ccc(F)cc5C(C)=O)cc4OCC4CC4)nc3)c2cc1OC` [Compound 273], the figures for the Kd in assay [1], in assay [2] and in assay [3] were less than 100 nM, less than 100 nM and 100 to 1000 nM, respectively.
With `COc1cc2nccc(Oc3ccc(NC(=O)c4nn(-c5ccc(F)c(C(C)=O)c5)cc4OCC4CC4)nc3)c2cc1OC` [Compound 274], the dissociation constant Kd in assay [1], in assay [2] and in assay [3] was less than 100 nM each time.
